Literature values as cited in patent publication US20120258914A1, “COACERVATION PROCESS” (Alkermes, Inc., priority 2007, published 2012).

exendin-4
secretion of insulin (in the presence of elevated blood glucose concentrations, but not during hypoglycemia): stimulate secretion of insulin
food intake and body weight (in vivo): affect food intake and body weight
gastric emptying (in vivo): slow gastric emptying
glucagon secretion (in vivo): suppress glucagon secretion
